Experimental findings from patent US8501936B2 (priority 2009, dated 2013) are described below.

Assay [1] addresses human FAK (Homo sapiens (Human), UniProt Q05397). The conditions noted are these: read-out: FAK IC50.
Method: The ability of compounds to inhibit the kinase activity of baculovirus-expressed human FAK and PYK2 was measured using the 96-well plate TRF assay system described above for JAK2. […] For the FAK kinase assay, the reaction mixture (total volume=100 μL/well) contained 20 mM HEPES (pH 7.2), 10 μM ATP, 5 mM MgCl2, 0.5 mM DTT, 0.1% BSA, and test compound (diluted in DMSO; 2.5% DMSO final in assay). For PYK2, the 100 μL assay solution consisted of 20 mM HEPES (pH 7.2), 3 μM ATP, 5 mM MnCl2, 0.1% BSA, and test compound (diluted in DMSO; 2.5% DMSO final in assay). Enzyme (10 ng/mL FAK or 25 ng/mL PYK2) was added and the reaction was allowed to proceed at room temperature for 30 min. Detection of the phosphorylated product was performed by adding 100 μL/well of Eu—N1 labeled PY100 antibody diluted 1:75000 in 0.25% BSA in TBS-T (PerkinElmer #AD0041). […] Inhibition data were analyzed using ActivityBase and IC50 curves generated using XLFit.
Assay [2] deals with human JAK2 (Homo sapiens (Human), UniProt O60674). As to conditions: read-out: JAK2 IC50.
human JAK2, sequence (O60674 815-1132): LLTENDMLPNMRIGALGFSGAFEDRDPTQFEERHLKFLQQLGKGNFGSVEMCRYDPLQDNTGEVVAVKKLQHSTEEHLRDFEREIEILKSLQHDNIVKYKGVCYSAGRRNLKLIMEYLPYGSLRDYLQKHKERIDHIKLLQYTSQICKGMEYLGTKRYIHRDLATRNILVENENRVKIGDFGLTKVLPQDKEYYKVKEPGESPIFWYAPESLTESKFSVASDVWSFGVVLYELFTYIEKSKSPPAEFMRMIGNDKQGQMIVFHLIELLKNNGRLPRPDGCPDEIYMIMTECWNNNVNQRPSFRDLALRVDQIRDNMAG

human FAK, sequence (Q05397 whole entry): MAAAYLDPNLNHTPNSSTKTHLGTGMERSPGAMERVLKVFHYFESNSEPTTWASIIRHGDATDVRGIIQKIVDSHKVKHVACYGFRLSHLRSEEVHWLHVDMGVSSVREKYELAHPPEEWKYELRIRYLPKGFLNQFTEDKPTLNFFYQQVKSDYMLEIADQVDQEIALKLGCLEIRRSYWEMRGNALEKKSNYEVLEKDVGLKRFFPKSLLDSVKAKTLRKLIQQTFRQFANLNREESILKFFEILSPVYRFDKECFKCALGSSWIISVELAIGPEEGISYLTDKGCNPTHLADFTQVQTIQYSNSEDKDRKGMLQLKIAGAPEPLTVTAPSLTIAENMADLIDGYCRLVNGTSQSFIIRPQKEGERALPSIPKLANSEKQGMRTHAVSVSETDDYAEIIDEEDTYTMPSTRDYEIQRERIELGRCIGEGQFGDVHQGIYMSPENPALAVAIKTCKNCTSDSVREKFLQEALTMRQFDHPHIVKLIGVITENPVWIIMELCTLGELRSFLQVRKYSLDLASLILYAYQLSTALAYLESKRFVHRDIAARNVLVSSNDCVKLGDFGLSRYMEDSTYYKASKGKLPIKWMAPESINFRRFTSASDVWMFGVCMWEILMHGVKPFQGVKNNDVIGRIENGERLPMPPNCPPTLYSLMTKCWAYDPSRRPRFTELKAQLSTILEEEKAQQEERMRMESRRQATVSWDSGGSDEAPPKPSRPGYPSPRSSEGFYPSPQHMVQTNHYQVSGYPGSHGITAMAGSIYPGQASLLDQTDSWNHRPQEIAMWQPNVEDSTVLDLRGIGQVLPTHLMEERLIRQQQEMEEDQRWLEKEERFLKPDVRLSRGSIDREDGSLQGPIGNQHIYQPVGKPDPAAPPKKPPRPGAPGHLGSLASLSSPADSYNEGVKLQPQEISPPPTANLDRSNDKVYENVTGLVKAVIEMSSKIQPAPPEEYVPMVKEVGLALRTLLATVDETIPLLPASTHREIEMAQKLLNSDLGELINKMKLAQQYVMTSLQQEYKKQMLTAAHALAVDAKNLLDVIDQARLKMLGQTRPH

Turning to `CCn1cc(Nc2nc3c(Oc4ccc(S(C)(=O)=O)cc4)cccn3n2)cn1` [Example 211, (1-Ethyl-1H-pyrazol-4-yl)-[8-(4-methanesulfonyl-phenoxy)-[1,2,4]triazolo[1,5-a]pyridin-2-yl]-amine], the IC50 in assay [1] was found to be 10000 nM; in assay [2] it was 1160 nM.

Regarding `CN1CCN(c2cccc(Nc3nc4cncc(-c5ccc(S(C)(=O)=O)cc5)n4n3)c2)CC1` [Example 107, [5-(4-Methanesulfonyl-phenyl)-[1,2,4]triazolo[1,5-a]pyrazin-2-yl]-[3-(4-methyl-piperazin-1-yl)-phenyl]-amine], the values for the IC50 in assay [1] and in assay [2] were 855 nM and 307 nM, respectively.

As to `CN1CCN(c2ccc(Nc3nc4cccc(-c5ccc(CN6CCS(=O)(=O)CC6)cc5)n4n3)cc2)CC1` [Example 70, 5-{4-[(1,1-dioxidothiomorpholin-4-yl)methyl]phenyl}-N-[4-(4-methylpiperazin-1-yl)phenyl][1,2,4]triazolo[1,5-a]pyridin-2-amine], the IC50 stood at 291 nM in assay [1] and 1.1 nM in assay [2].

Consider `CN1CCN(c2cccc(Nc3nc4c(C#Cc5ccccc5N(C)S(C)(=O)=O)cccn4n3)c2)CC1` [Example 192, N-Methyl-N-(2-{2-[3-(4-methyl-piperazin-1-yl)-phenylamino]-[1,2,4]triazolo[1,5-a]pyridin-8-ylethynyl}-phenyl)-methanesulfonamide], for which the IC50 was 2420 nM in assay [1] and 23.9 nM in assay [2].

On to `CN1CCC(c2ccc(Nc3nc4c(NCc5cccc(S(C)(=O)=O)c5)cccn4n3)cc2)CC1` [Example 162, N(8)-(3-Methanesulfonyl-benzyl)-N(2)-[4-(1-methyl-piperidin-4-yl)-phenyl]-[1,2,4]triazolo[1,5-a]pyridine-2,8-diamine], for which the IC50 came out at 10000 nM in assay [1] and 328 nM in assay [2].

Consider `CS(=O)(=O)c1cccc(-c2cccn3nc(Nc4cccc(N5CCOCC5)c4)nc23)c1` [Example 29, [8-(3-Methanesulfonyl-phenyl)-[1,2,4]triazolo[1,5-a]pyridin-2-yl]-(3-morpholin-4-yl-phenyl)-amine], for which the IC50 in assay [1] was determined as 1350 nM; in assay [2], 5.6 nM.

As to `CN1CCN(c2cccc(Nc3nc4cccc(-c5ccc(S(C)(=O)=O)cc5)n4n3)c2)CC1` [Example 92, [5-(4-Methanesulfonyl-phenyl)-[1,2,4]triazolo[1,5-a]pyridin-2-yl]-[3-(4-methyl-piperazin-1-yl)-phenyl]-amine], the IC50 in assay [1] stood at 1270 nM; in assay [2], 2.8 nM.

With `CN1CCN(c2ccc(Nc3nc4c(/C=C/c5ccccc5N(C)S(C)(=O)=O)cccn4n3)cc2)CC1` [Example 196, N-Methyl-N-[2-((E)-2-{2-[4-(4-methyl-piperazin-1-yl)-phenylamino]-[1,2,4]triazolo[1,5-a]pyridin-8-yl}-vinyl)-phenyl]-methanesulfonamide], the IC50 in assay [1] was 999 nM; in assay [2], 32.1 nM.

As to `CS(=O)(=O)c1ccc(-c2cccn3nc(Nc4cnn(C5CCNCC5)c4)nc23)cc1` [Example 213, [8-(4-Methanesulfonyl-phenyl)-[1,2,4]triazolo[1,5-a]pyridin-2-yl]-(1-piperidin-4-yl-1H-pyrazol-4-yl)-amine], the concentration for half-maximal inhibition (IC50) in assay [1] stood at 3000 nM; in assay [2], 0.71 nM.

Take `COc1cnc(-c2cccn3nc(Nc4ccc(C5CCNCC5)cc4)nc23)cn1` [Example 285]: the concentration for half-maximal inhibition (IC50) in assay [1] turned out to be 2470 nM; in assay [2] it was 73.8 nM.

For the compound `CN1CCN(c2cccc(Nc3nc4c(NCc5ccccc5F)cccn4n3)c2)CC1` [Example 395, N(8)-(2-Fluoro-benzyl)-N(2)-[3-(4-methyl-piperazin-1-yl)-phenyl]-[1,2,4]triazolo[1,5-a]pyridine-2,8-diamine], the values for the IC50 in assay [1] and in assay [2] were 1480 nM and 180 nM, respectively.

Turning to `CS(=O)(=O)c1ccc(-c2cccc3nc(Nc4cccc(CN5CCS(=O)(=O)CC5)c4)nn23)cc1` [Example 121, N-{3-[(1,1-dioxidothiomorpholin-4-yl)methyl]phenyl}-5-[4-(methylsulfonyl)phenyl][1,2,4]triazolo[1,5-a]pyridin-2-amine], the 50% inhibitory concentration (IC50) in assay [1] amounted to 999 nM; in assay [2], 0.55 nM.

For the compound `COc1cccc(CNc2cccn3nc(Nc4ccc(C)nc4)nc23)c1` [Example 405, N(8)-(3-Methoxy-benzyl)-N(2)-(6-methyl-pyridin-3-yl)-[1,2,4]triazolo[1,5-a]pyridine-2,8-diamine], the IC50 in assay [1] is 10000 nM; in assay [2], 1020 nM.

As for `CN1CCN(c2ccc(Nc3nc4c(NCc5ccccc5S(C)(=O)=O)cccn4n3)cc2)CC1` [Example 138, N(8)-(2-Methanesulfonyl-benzyl)-N(2)-[4-(4-methyl-piperazin-1-yl)-phenyl]-[1,2,4]triazolo[1,5-a]pyridine-2,8-diamine], the IC50 was 199 nM in assay [1] and 13.2 nM in assay [2].

As to `CS(=O)(=O)c1ccc(-c2cccc3nc(Nc4cccc(S(C)(=O)=O)c4)nn23)cc1` [Example 94, (3-Methanesulfonyl-phenyl)-[5-(4-methanesulfonyl-phenyl)-[1,2,4]triazolo[1,5-a]pyridin-2-yl]-amine], the IC50 in assay [1] came to 3000 nM; in assay [2] it was 9.3 nM.

With `Cc1ccc(-n2cc(-c3cccn4nc(Nc5ccc(C6CCNCC6)cc5)nc34)cn2)cc1` [Example 289, (4-Piperidin-4-yl-phenyl)-[8-(1-p-tolyl-1H-pyrazol-4-yl)-[1,2,4]triazolo[1,5-a]pyridine-2-yl]-amine], the results for the IC50 in assay [1] and in assay [2] were 2420 nM and 4.04 nM, respectively.

As for `COc1ccc(F)cc1-c1cccn2nc(Nc3ccc4c(c3)CCN(CC(=O)N(C)C)CC4)nc12` [Example 323, 2-{7-[8-(5-Fluoro-2-methoxy-phenyl)-[1,2,4]triazolo[1,5-a]pyridin-2-ylamino]-1,2,4,5-tetrahydro-3-benzazepin-3-yl}-N,N-dimethyl-acetamide], the IC50 in assay [1] turned out to be 691 nM; in assay [2] it was 11.3 nM.

In the case of `CN1CCN(c2ccc(Nc3nc4c(-c5ccc(N(C)S(C)(=O)=O)cc5)cccn4n3)cc2)CC1` [Example 62, N-Methyl-N-(4-{2-[4-(4-methyl-piperazin-1-yl)-phenylamino]-[1,2,4]triazolo[1,5-a]pyridin-8-yl}-phenyl)-methanesulfonamide], the IC50 in assay [1] worked out at 999 nM; in assay [2], 0.6 nM.

`COc1ccc(C(F)(F)F)cc1-c1cccn2nc(Nc3ccc(OCCN4CCOCC4)cc3)nc12` [Example 258, [8-(2-Methoxy-5-trifluoromethyl-phenyl)-[1,2,4]triazolo[1,5-a]pyridin-2-yl]-[4-(2-morpholin-4-yl-ethoxy)-phenyl]-amine]: the values for the IC50 in assay [1] and in assay [2] were 6500 nM and 84.5 nM, respectively.

As for `CN1CCC(c2ccc(Nc3nc4c(Nc5ccccc5CS(C)(=O)=O)cccn4n3)cc2)CC1` [Example 165, N(8)-(2-Methanesulfonylmethyl-phenyl)-N(2)-[4-(1-methyl-piperidin-4-yl)-phenyl]-[1,2,4]triazolo[1,5-a]pyridine-2,8-diamine], the IC50 in assay [1] came out at 2000 nM; in assay [2], 39.9 nM.

Take `FC(F)(F)c1ccc(-c2cccn3nc(Nc4cnn(CCN5CCCC5)c4)nc23)cc1` [Example 216, [1-(2-Pyrrolidin-1-yl-ethyl)-1H-pyrazol-4-yl]-[8-(4-trifluoromethyl-phenyl)-[1,2,4]triazolo[1,5-a]pyridin-2-yl]-amine]: the IC50 in assay [1] turned out to be 10000 nM; in assay [2], 9.1 nM.

Regarding `CN1CCC(c2ccc(Nc3nc4c(NCc5ccccc5N(C)S(C)(=O)=O)cccn4n3)cc2)CC1` [Example 149, N-Methyl-N-[2-({2-[4-(1-methyl-piperidin-4-yl)-phenylamino]-[1,2,4]triazolo[1,5-a]pyridin-8-ylamino}-methyl)-phenyl]-methanesulfonamide], the figures for the IC50 in assay [1] and in assay [2] were 13.6 nM and 38.5 nM, respectively.

`CCN1CCN(c2cccc(Nc3nc4c(-c5ccc(P(C)(C)=O)cc5)cccn4n3)c2)C(=O)C1` [Example 208, 1-(3-{8-[4-(Dimethyl-phosphinoyl)-phenyl]-[1,2,4]triazolo[1,5-a]pyridin-2-ylamino}-phenyl)-4-ethyl-piperazin-2-one]: the IC50 came to 10000 nM in assay [1] and 13.2 nM in assay [2].

For the compound `CS(=O)(=O)c1ccc(-c2cccn3nc(NCCc4ccccn4)nc23)cc1` [Example 406, [8-(4-Methanesulfonyl-phenyl)-[1,2,4]triazolo[1,5-a]pyridin-2-yl]-(2-pyridin-2-yl-ethyl)-amine], the 50% inhibitory concentration (IC50) in assay [1] and in assay [2] was 10000 nM each time.

Turning to `CN1CCN(c2ccc(Nc3nc4c(NCc5ccccc5N(C)S(C)(=O)=O)cccn4n3)cc2)CC1` [Example 147, N-Methyl-N-[2-({2-[4-(4-methyl-piperazin-1-yl)-phenylamino]-[1,2,4]triazolo[1,5-a]pyridin-8-ylamino}-methyl)-phenyl]-methanesulfonamide], the IC50 in assay [1] amounted to 11.4 nM; in assay [2], 29.1 nM.

For `CN(c1ncccc1CNc1cccn2nc(Nc3cccc(S(C)(=O)=O)c3)nc12)S(C)(=O)=O` [Example 135, N-(3-{[2-(3-Methanesulfonyl-phenylamino)-[1,2,4]triazolo[1,5-a]pyridin-8-ylamino]-methyl}-pyridin-2-yl)-N-methyl-methanesulfonamide], the figures for the IC50 in assay [1] and in assay [2] were 215 nM and 77.8 nM, respectively.

Regarding `CN1CCC(c2ccc(Nc3nc4c(Nc5ccccc5CN(C)S(C)(=O)=O)cccn4n3)cc2)CC1` [Example 174, N-Methyl-N-(2-{2-[4-(1-methyl-piperidin-4-yl)-phenylamino]-[1,2,4]triazolo[1,5-a]pyridin-8-ylamino}-benzyl)-methanesulfonamide], the IC50 in assay [1] turned out to be 10000 nM; in assay [2], 111 nM.

As for `CN(c1ccccc1CNc1cccn2nc(Nc3ccc4c(c3)CCC(N3CCOCC3)CC4)nc12)S(C)(=O)=O` (centres unmarked) [Example 200, N-Methyl-N-(2-{[2-(7-morpholin-4-yl-6,7,8,9-tetrahydro-5H-benzocyclohepten-2-ylamino)-[1,2,4]triazolo[1,5-a]pyridin-8-ylamino]-methyl}-phenyl)-methanesulfonamide], the IC50 is 18.2 nM in assay [1] and 134 nM in assay [2].

One may read the IC50 as the concentration needed to halve the response being measured.
